Test system: soybean cultivars L2711R2X, L3385R2
Test: Field 2012: 2,4-D Low Vol 4 + crop oil drizzled onto soil at R1 stage, Laurel, Iowa (Table 2b)
Assay type: in vivo
Description: Plants were treated by drizzling via low pressure spraying the 2,4-D solution onto the soil along each side of the rows when plants are at the R1 stage of growth. The date of planting was May 15, 2012 and the date of harvest was Oct. 2, 2012 at plots in Alexander, Iowa (Table 2a) and Laurel, Iowa (Table 2b). Plants were grown from Roundup Ready seed and were sprayed with glyphosate for weed control. Plants were treated with between 1X and 5.5X of 2,4-D solution mixed with crop oil at 15.3 ounces of 2,4-D Low Vol 4 plus 0.32 ounces crop oil per gallon, where 1X is equivalent to approximately 0.45 pounds acid equivalent of 2,4-D. Two repetitions were performed at different plots. […] The moisture percentages were used in correcting each yield to a 13% moisture basis.

[1] = 1.0X Rate, L2711R2X, 1X~0.45 lb a.e.
[2] = 1.0X Rate, L3385R2, 1X~0.45 lb a.e.
[3] = 1.5X Rate, L2711R2X, 1X~0.45 lb a.e.
[4] = 1.5X Rate, L3385R2, 1X~0.45 lb a.e.
[5] = 2.0X Rate, L2711R2X, 1X~0.45 lb a.e.
[6] = 2.0X Rate, L3385R2, 1X~0.45 lb a.e.
[7] = 2.5X Rate, L2711R2X, 1X~0.45 lb a.e.
[8] = 2.5X Rate, L3385R2, 1X~0.45 lb a.e.
[9] = 3.0X Rate, L2711R2X, 1X~0.45 lb a.e.
[10] = 3.0X Rate, L3385R2, 1X~0.45 lb a.e.
[11] = 3.5X Rate, L2711R2X, 1X~0.45 lb a.e.
[12] = 3.5X Rate, L3385R2, 1X~0.45 lb a.e.
[13] = 4.0X Rate, L2711R2X, 1X~0.45 lb a.e.
[14] = 4.0X Rate, L3385R2, 1X~0.45 lb a.e.
[15] = 4.5X Rate, L2711R2X, 1X~0.45 lb a.e.
[16] = 4.5X Rate, L3385R2, 1X~0.45 lb a.e.
[17] = 5.0X Rate, L2711R2X, 1X~0.45 lb a.e.
[18] = 5.0X Rate, L3385R2, 1X~0.45 lb a.e.
[19] = 5.5X Rate, L2711R2X, 1X~0.45 lb a.e.
[20] = 5.5X Rate, L3385R2, 1X~0.45 lb a.e.
[21] = Average over 1.0X-3.0X Rates, L2711R2X
[22] = Average over 1.0X-3.0X Rates, L3385R2
[23] = Average over 1.0X-5.5X Rates, L2711R2X
[24] = Average over 1.0X-5.5X Rates, L3385R2
[25] = Overall location average, all rates, both cultivars

## O=C(O)COc1ccc(Cl)cc1Cl [2,4-D, 2,4-Dichlorophenoxyacetic acid]
[1]
  Average Yield: 64.93 Bu/A
  Repetition 1 Weight: 5.6 Lbs
  Repetition 1 Yield: 62.69 Bu/A
  Repetition 2 Weight: 6.0 Lbs
  Repetition 2 Yield: 67.16 Bu/A
[2]
  Average Yield: 72.50 Bu/A
  Repetition 1 Weight: 6.7 Lbs
  Repetition 1 Yield: 73.40 Bu/A
  Repetition 2 Weight: 6.5 Lbs
  Repetition 2 Yield: 71.60 Bu/A
[3]
  Average Yield: 67.20 Bu/A
  Repetition 1 Weight: 6.6 Lbs
  Repetition 1 Yield: 73.88 Bu/A
  Repetition 2 Weight: 5.4 Lbs
  Repetition 2 Yield: 60.51 Bu/A
[4]
  Average Yield: 75.70 Bu/A
  Repetition 1 Weight: 6.8 Lbs
  Repetition 1 Yield: 74.34 Bu/A
  Repetition 2 Weight: 6.9 Lbs
  Repetition 2 Yield: 77.07 Bu/A
[5]
  Average Yield: 63.41 Bu/A
  Repetition 1 Weight: 5.7 Lbs
  Repetition 1 Yield: 64.01 Bu/A
  Repetition 2 Weight: 5.6 Lbs
  Repetition 2 Yield: 62.82 Bu/A
[6]
  Average Yield: 70.93 Bu/A
  Repetition 1 Weight: 6.3 Lbs
  Repetition 1 Yield: 70.22 Bu/A
  Repetition 2 Weight: 6.4 Lbs
  Repetition 2 Yield: 71.64 Bu/A
[7]
  Average Yield: 63.35 Bu/A
  Repetition 1 Weight: 5.7 Lbs
  Repetition 1 Yield: 63.87 Bu/A
  Repetition 2 Weight: 5.6 Lbs
  Repetition 2 Yield: 62.82 Bu/A
[8]
  Average Yield: 71.91 Bu/A
  Repetition 1 Weight: 6.3 Lbs
  Repetition 1 Yield: 70.60 Bu/A
  Repetition 2 Weight: 6.5 Lbs
  Repetition 2 Yield: 73.23 Bu/A
[9]
  Average Yield: 63.84 Bu/A
  Repetition 1 Weight: 5.5 Lbs
  Repetition 1 Yield: 61.50 Bu/A
  Repetition 2 Weight: 5.9 Lbs
  Repetition 2 Yield: 66.19 Bu/A
[10]
  Average Yield: 71.91 Bu/A
  Repetition 1 Weight: 6.6 Lbs
  Repetition 1 Yield: 74.12 Bu/A
  Repetition 2 Weight: 6.2 Lbs
  Repetition 2 Yield: 69.70 Bu/A
[11]
  Repetition 1 Weight: 5.7 Lbs
  Repetition 1 Yield: 63.74 Bu/A
3.5X Rate, L2711R2X, 1X~0.45 lb a.e., repetition 1 only
  Average Yield: 63.74 Bu/A
[12]
  Repetition 1 Weight: 6.3 Lbs
  Repetition 1 Yield: 68.94 Bu/A
3.5X Rate, L3385R2, 1X~0.45 lb a.e., repetition 1 only
  Average Yield: 68.94 Bu/A
[13]
  Repetition 1 Weight: 6.1 Lbs
  Repetition 1 Yield: 68.28 Bu/A
4.0X Rate, L2711R2X, 1X~0.45 lb a.e., repetition 1 only
  Average Yield: 68.28 Bu/A
[14]
  Repetition 1 Weight: 6.7 Lbs
  Repetition 1 Yield: 74.76 Bu/A
4.0X Rate, L3385R2, 1X~0.45 lb a.e., repetition 1 only
  Average Yield: 74.76 Bu/A
[15]
  Repetition 1 Weight: 6.3 Lbs
  Repetition 1 Yield: 70.60 Bu/A
4.5X Rate, L2711R2X, 1X~0.45 lb a.e., repetition 1 only
  Average Yield: 70.60 Bu/A
[16]
  Repetition 1 Weight: 6.6 Lbs
  Repetition 1 Yield: 72.78 Bu/A
4.5X Rate, L3385R2, 1X~0.45 lb a.e., repetition 1 only
  Average Yield: 72.78 Bu/A
[17]
  Repetition 1 Weight: 5.9 Lbs
  Repetition 1 Yield: 66.11 Bu/A
5.0X Rate, L2711R2X, 1X~0.45 lb a.e., repetition 1 only
  Average Yield: 66.11 Bu/A
[18]
  Repetition 1 Weight: 6.6 Lbs
  Repetition 1 Yield: 74.12 Bu/A
5.0X Rate, L3385R2, 1X~0.45 lb a.e., repetition 1 only
  Average Yield: 74.12 Bu/A
[19]
  Repetition 1 Weight: 5.4 Lbs
  Repetition 1 Yield: 60.45 Bu/A
5.5X Rate, L2711R2X, 1X~0.45 lb a.e., repetition 1 only
  Average Yield: 60.45 Bu/A
[20]
  Repetition 1 Weight: 6.3 Lbs
  Repetition 1 Yield: 70.37 Bu/A
5.5X Rate, L3385R2, 1X~0.45 lb a.e., repetition 1 only
  Average Yield: 70.37 Bu/A
[21]
  Repetition 2 Weight: 5.7 Lbs
  Repetition 2 Yield: 63.90 Bu/A
[22]
  Repetition 2 Weight: 6.5 Lbs
  Repetition 2 Yield: 72.65 Bu/A
[23]
  Average Yield: 65.19 Bu/A
  Repetition 1 Weight: 5.9 Lbs
  Repetition 1 Yield: 65.51 Bu/A
[24]
  Average Yield: 72.39 Bu/A
  Repetition 1 Weight: 6.5 Lbs
  Repetition 1 Yield: 72.36 Bu/A
[25]
  Average Yield: 68.79 Bu/A
  Repetition 1 Weight: 6.2 Lbs
  Repetition 1 Yield: 68.94 Bu/A
  Repetition 2 Weight: 6.1 Lbs
  Repetition 2 Yield: 68.27 Bu/A

— patent publication US20140371074A1, “METHOD TO INCREASE PLANT YIELD” (priority 2012, published 2014)
